# Test results: patent US8741806B2, “Herbicides” (Syngenta Limited, priority 2009, dated 2014)
# Tests used:
# Assay type in all cases: in vivo
# [1] = tested on: Echinochloa crus-galli (ECHCG); assay: Example B pre-emergence herbicidal activity, glasshouse pot test; settings: 312 h, rate 250 g/ha, evaluated after 13 days, scale 0-100, read-out: Pre-emergence activity ECHCG (100=total damage to plant; 0=no damage to plant)
# Experimental: (§1) Seeds of a variety of test species were sown in standard soil in pots. After cultivation for one day (pre-emergence) or after 8 days cultivation (post-emergence) under controlled conditions in a glasshouse (at 24/16° C., day/night; 14 hours light; 65% humidity), the plants were sprayed with an aqueous spray solution derived from the formulation of the technical active ingredient of formula I in acetone/water (50:50) solution containing 0.5% Tween 20 (polyoxyethelyene sorbitan monolaurate, CAS RN 9005-64-5). The test plants were then grown in a glasshouse under controlled conditions in a glasshouse (at 24/16° C., day/night; 14 hours light; 65% humidity) and watered twice daily. After 13 days for pre and post-emergence, the test was evaluated (100=total damage to plant; 0=no damage to plant). Setaria faberi (SETFA), Lolium perenne (LOLPE), Alopecurus myosuroides (ALOMY), Echinochloa crus-galli (ECHCG), and Avena fatua (AVEFA). Pre-Emergence Activity
# [2] = tested on: Avena fatua (AVEFA); assay: as above; settings: 312 h, rate 250 g/ha, evaluated after 13 days, scale 0-100, read-out: Pre-emergence activity AVEFA (100=total damage to plant; 0=no damage to plant)
# Experimental: as §1
# [3] = tested on: Alopecurus myosuroides (ALOMY); assay: as above; settings: 312 h, rate 250 g/ha, evaluated after 13 days, scale 0-100, read-out: Pre-emergence activity ALOMY (100=total damage to plant; 0=no damage to plant)
# Experimental: as §1
# [4] = tested on: Lolium perenne (LOLPE); assay: as above; settings: 312 h, rate 250 g/ha, evaluated after 13 days, scale 0-100, read-out: Pre-emergence activity LOLPE (100=total damage to plant; 0=no damage to plant)
# Experimental: as §1
# [5] = tested on: Echinochloa crus-galli (ECHCG); assay: Example B post-emergence herbicidal activity, glasshouse pot test; settings: 312 h, rate 250 g/ha, evaluated after 13 days, scale 0-100, read-out: Post-emergence activity ECHCG (100=total damage to plant; 0=no damage to plant)
# Experimental: as §1, with “Post-Emergence” for “Pre-Emergence”
# [6] = tested on: Avena fatua (AVEFA); assay: as above; settings: 312 h, rate 250 g/ha, evaluated after 13 days, scale 0-100, read-out: Post-emergence activity AVEFA (100=total damage to plant; 0=no damage to plant)
# Experimental: as §1, with “Post-Emergence” for “Pre-Emergence”
# [7] = tested on: Alopecurus myosuroides (ALOMY); assay: as above; settings: 312 h, rate 250 g/ha, evaluated after 13 days, scale 0-100, read-out: Post-emergence activity ALOMY (100=total damage to plant; 0=no damage to plant)
# Experimental: as §1, with “Post-Emergence” for “Pre-Emergence”
# [8] = tested on: Lolium perenne (LOLPE); assay: as above; settings: 312 h, rate 250 g/ha, evaluated after 13 days, scale 0-100, read-out: Post-emergence activity LOLPE (100=total damage to plant; 0=no damage to plant)
# Experimental: as §1, with “Post-Emergence” for “Pre-Emergence”
Compound,pest or weed control at 250 g/ha [1] [%],pest or weed control at 250 g/ha [2] [%],pest or weed control at 250 g/ha [3] [%],pest or weed control at 250 g/ha [4] [%],pest or weed control at 250 g/ha [5] [%],pest or weed control at 250 g/ha [6] [%],pest or weed control at 250 g/ha [7] [%],pest or weed control at 250 g/ha [8] [%]
CCc1ccc(-c2ccc(Cl)cc2Cl)cc1C1=C(O)CCCC1=O [Compound T44],90,0,0,80,100,0,30,80
CCc1ccc(-c2ccc(Cl)c(OC)c2)cc1C1=C(O)C(C)(C)CC(C)(C)C1=O [Compound T66],90,0,10,30,100,50,30,30
CCc1ccc(-c2ccc(Cl)c(Cl)c2F)cc1C1=C(O)C(C)(C)CCC1=O [Compound T17],80,0,0,0,90,0,0,40
CCc1ccc(-c2ccc(Cl)c(Cl)c2)cc1C1=C(O)C(C)(C)CCC1=O [Compound T5],0,0,0,0,100,90,70,80
CCc1ccc(-c2ccc(Cl)c(Cl)c2Cl)cc1C1=C(O)CCCC1=O [Compound T54],70,0,0,20,80,0,20,60
CCc1ccc(-c2ccc(Cl)nc2)cc1C1=C(O)CCCC1=O [Compound T42],20,0,0,0,100,20,50,50
CCc1ccc(-c2cc(Cl)c(Cl)cc2Cl)cc1C1=C(O)CCCC1=O [Compound T46],90,20,0,70,100,20,0,70
CCc1ccc(-c2ccc(Cl)c(Cl)c2)cc1C1=C(O)C(C)(C)CC(C)(C)C1=O [Compound T67],60,0,10,10,80,20,20,40
CCc1ccc(-c2ccc(Cl)c(C(F)(F)F)c2F)cc1C1=C(O)CCCC1=O [Compound T53],40,0,20,40,100,80,40,100
CCc1ccc(-c2ccc(Cl)cc2F)cc1C1=C(O)C(C)(C)CC(C)(C)C1=O [Compound T60],90,30,0,80,100,30,10,80
